In general, EC50 refers to the concentration at which the effect is half-maximal. A high value points to a need for much substance. In general, DC50 refers to the midpoint of the concentration-degradation curve.

Assay [1] relates to Eotaxin-3 (CCL26) release. The experiment in a line: Human Whole Blood Eotaxin-3 Assay (IL-4 stimulated). Format: cell-based. To be noted: Homo sapiens; geometric mean across assay runs and compound batches; EC50 provided for test compounds with >80% Emax. The protocol: This was a human whole blood assay using recombinant human Interleukin 4 to stimulate the blood and measuring the ability of the test compounds to inhibit eotaxin-3 release. The biological activities of the test compounds have been tested in human whole blood stimulated with IL-4 measuring Eotaxin-3 release. The test compounds were added to 384 well clear flat-bottom plate in a 4-fold serial dilution in triplicates using a liquid handler. Human whole blood stabilized in lithium-heparin tubes was added in a volume of 65 μL per well, resulting in a final DMSO concentration of 0.5%. The plate is incubated for 2 h at 37° C. under 5% CO2/95% air. Subsequently, 5 μL of recombinant human IL-4 (R&D Systems, cat #204-ILB) was added to the wells to a final concentration of 400 pM. The plate was incubated for 48 h at 37° C. under 5% CO2/95% air. The plate was spun down for 10 minutes at 500×g and 20 μL supernatant was harvested and transferred to a 384 well v-bottom plate using a liquid handler and stored at −20° C. until further analysis. 10 μL supernatant was used to measure the level of Eotaxin-3 (CCL26) using Human Eotaxin-3 MSD kit from Mesocsale (Cat #K251UEK-4). The assay was performed according to the manufacture instructions.

The target of another assay is T1, STAT6 (Homo sapiens, UniProt P42226).
T1 construct: These cells express endogenous STAT6; host or cells: HeLa LgBiT clone 4.14 (CRISPR knock-in of HiBiT into the endogenous STAT6 gene)
T1 sequence (P42226 1-847): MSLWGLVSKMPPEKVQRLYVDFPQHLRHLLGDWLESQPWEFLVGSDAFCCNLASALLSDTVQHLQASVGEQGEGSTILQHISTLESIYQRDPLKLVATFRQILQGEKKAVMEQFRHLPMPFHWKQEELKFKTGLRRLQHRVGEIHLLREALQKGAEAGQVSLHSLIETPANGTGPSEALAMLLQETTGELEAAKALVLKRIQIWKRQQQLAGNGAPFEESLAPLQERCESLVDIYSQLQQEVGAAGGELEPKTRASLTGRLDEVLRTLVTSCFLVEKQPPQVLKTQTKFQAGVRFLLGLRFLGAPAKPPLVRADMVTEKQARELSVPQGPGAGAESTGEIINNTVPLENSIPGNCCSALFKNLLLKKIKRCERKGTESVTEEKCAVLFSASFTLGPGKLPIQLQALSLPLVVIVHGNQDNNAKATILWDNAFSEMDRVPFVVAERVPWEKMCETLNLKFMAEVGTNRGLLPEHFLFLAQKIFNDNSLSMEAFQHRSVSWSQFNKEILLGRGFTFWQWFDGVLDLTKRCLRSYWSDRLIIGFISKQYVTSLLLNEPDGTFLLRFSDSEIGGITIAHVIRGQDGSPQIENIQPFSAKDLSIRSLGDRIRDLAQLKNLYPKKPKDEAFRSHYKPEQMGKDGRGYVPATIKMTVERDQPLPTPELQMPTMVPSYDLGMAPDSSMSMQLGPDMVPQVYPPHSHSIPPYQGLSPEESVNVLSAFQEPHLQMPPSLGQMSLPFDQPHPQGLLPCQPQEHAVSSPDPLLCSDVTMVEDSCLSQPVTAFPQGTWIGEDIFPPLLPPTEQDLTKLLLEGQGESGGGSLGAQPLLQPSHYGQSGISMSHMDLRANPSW
The assay can be described thus: STAT6 Degrader Assay (HiBiT based, HeLa LgBiT clone 4.14 cells). To be noted: geometric mean across assay runs and compound batches; DC50 provided for test compounds with >80% Emax; read-out: STAT6 degradation DC50. Format: cell-based. The essentials: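 HeLa LgBiT clone 4.14 with CRISPR HiBiT-tagged endogenous STAT6, 5000 cells/well, compound exposure 4-24 h at 37° C. Residual STAT6 read as Nano-Glo luminescence after 0.5 h. 50 μM terfenadine set 100% degradation; DC50 in nM.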
In general terms: With HiBiT, luminescence reflects the tagged protein that the partner subunit can reach.

In assay [1], `CNc1cc(=O)n(-c2ccnc3c2cc([C@H](C)N2CC=C(c4c(C)cc(C(=O)N5CCn6nc(CN7CCC(c8ccc(N[C@@H]9CCC(=O)NC9=O)cc8F)CC7)cc6C5)cc4F)CC2)n3C)cc1F` (single isomer, unassigned) [Example 2g5] yielded an EC50 of 2.7 nM. On STAT6, the DC50 was 0.5 nM. The like results for `CNc1ccn(-c2ccnc3c2cc([C@H](C)N2CC=C(c4c(C)cc(C(=O)N5CCC(CN6CCN(c7ccc(N[C@H]8CCC(=O)NC8=O)c(OC)c7)CC6)CC5)cc4F)CC2)n3C)c(=O)c1` (single isomer, unassigned) [Example 2g126] were, in that order, 21.2 nM and 4.3 nM. Turning to `CNc1ccn(-c2ccnc3c2cc(CN2CCC(c4c(F)cc(C(=O)N5CCn6nc(CN7CCC(c8ccc(N[C@@H]9CCC(=O)NC9=O)cc8F)CC7)cc6C5)cc4F)CC2)n3C)c(=O)c1` (single isomer, unassigned) [Example 2g102], the midpoint of the response in assay [1], the EC50, lay at 0.8 nM. Besides, on STAT6, the DC50 stood at 1.5 nM. With `CNc1ccn(-c2ccnc3c2cc([C@H](C)N2CC=C(c4c(C)cc(C(=O)N5CCC(CN6CCN(c7ncc(NC8CCC(=O)NC8=O)cc7F)C[C@@H]6C)CC5)cc4F)CC2)n3C)c(=O)c1` (stereo partly drawn) [Example 2g94, 3-((5-fluoro-6-((S)-4-((1-(3-fluoro-5-methyl-4-(1-((S)-1-(1-methyl-4-(4-(methyl-amino)-2-oxopyridin-1(2H)-yl)-1H-pyrrolo[2,3-b]pyridin-2-yl)ethyl)-1,2,3,6-tetrahydro-pyridin-4-yl)benzoyl)piperi-din-4-yl)methyl)-3-methyl-piperazin-1-yl)pyridin-3-yl)-amino)piperidine-2,6-dione], a half-maximal effect in assay [1] (EC50) was put at 23.6 nM. Besides, the DC50 at STAT6 worked out at 6.6 nM.

In assay [1], `CNc1ccn(-c2ccnc3c2cc([C@H](C)N2CC=C(c4c(C)cc(C(=O)N5CCn6nc(CN7CCC(c8ccc(NC9CCC(=O)NC9=O)cc8F)CC7)cc6C5)cc4F)CC2)n3C)c(=O)c1` (stereo partly drawn) [Example 2g15, 3-((3-fluoro-4-(1-((5-(3-fluoro-5-methyl-4-(1-((S)-1-(1-methyl-4-(4-(methyl-amino)-2-oxopyridin-1(2H)-yl)-1H-pyrrolo[2,3-b]pyridin-2-yl)ethyl)-1,2,3,6-tetrahydro-pyridin-4-yl)benzoyl)-4,5,6,7-tetrahydropyrazolo[1,5-a]pyr-azin-2-yl)methyl)piperidin-4-yl)phenyl)amino)piperidine-2,6-dione] registered an EC50 of 0.1 nM. Further, the DC50 on STAT6 is 0.2 nM. On the same counts, the results for `CNc1ccn(-c2ccnc3c2cc([C@H](C)N2CC=C(c4c(C)cc(C(=O)N5CCC(CN6CCN(c7ncc(NC8CCC(=O)NC8=O)cc7F)C[C@H]6C)CC5)cc4F)CC2)n3C)c(=O)c1` (stereo partly drawn) [Example 2g113, 3-((5-fluoro-6-((R)-4-((1-(3-fluoro-5-methyl-4-(1-((S)-1-(1-methyl-4-(4-(methyl-amino)-2-oxopyridin-1(2H)-yl)-1H-pyrrolo[2,3-b]pyridin-2-yl)ethyl)-1,2,3,6-tetrahydro-pyridin-4-yl)benzoyl)piperi-din-4-yl)methyl)-3-methyl-piperazin-1-yl)pyridin-3-yl)-amino)piperidine-2,6-dione] are 13.8 nM and 3.5 nM. Regarding `CNc1cc(=O)n(-c2ccnc3c2cc([C@H](C)N2CC=C(c4c(C)cc(C(=O)N5CCn6nc(CN7CCC(c8cc(OC)c(NC9CCC(=O)NC9=O)cc8F)CC7)cc6C5)cc4F)CC2)n3C)cc1F` (stereo partly drawn) [Example 2g50, 3-((5-fluoro-4-(1-((5-(3-fluoro-4-(1-((S)-1-(4-(5-fluoro-4-(methylamino)-2-oxopyridin-1(2H)-yl)-1-meth-yl-1H-pyrrolo[2,3-b]pyridin-2-yl)ethyl)-1,2,3,6-tetrahydro-hydropyridin-4-yl)-5-methyl-benzoyl)-4,5,6,7-tetrahydro-pyrazolo[1,5-a]pyrazin-2-yl)-methyl)piperidin-4-yl)-2-methoxyphenyl)amino)piperi-dine-2,6-dione], the midpoint of the response in assay [1], the EC50, lay at 121 nM. Still for that read-out and setting: the value for `CNc1ccn(-c2ccnc3c2cc([C@H](C)N2CC=C(c4c(C)cc(C(=O)N5CCC(CN6CCN(c7cccc(C(=O)NC8CCC(=O)NC8=O)c7)CC6)CC5)cc4F)CC2)n3C)c(=O)c1` (stereo partly drawn) [Example 2g21, N-(2,6-dioxopiperidin-3-yl)-3-(4-((1-(3-fluoro-5-methyl-4-(1-((S)-1-(1-methyl-4-(4-(methylamino)-2-oxopyridin-1(2H)-yl)-1H-pyrrolo[2,3-b]pyridin-2-yl)ethyl)-1,2,3,6-tetrahydropyridin-4-yl)benzo-yl)piperidin-4-yl)methyl)-piperazin-1-yl)benzamide] was 36.4 nM. Still for that read-out and setting: with `CNc1cc(=O)n(-c2ccnc3c2cc([C@@H](C)N2CC=C(c4c(F)cc(C(=O)N5CCn6nc(CN7CCC(c8ccc(NC9CCC(=O)NC9=O)cc8F)CC7)cc6C5)cc4F)CC2)n3C)cc1F` (stereo in doubt) [Example 2g2, 3-((4-(1-((5-(3,5-difluoro-4-(1-((R)-1-(4-(5-fluoro-4-(methylamino)-2-oxopyridin-1(2H)-yl)-1-methyl-1H-pyrrolo[2,3-b]pyridin-2-yl)-ethyl)-1,2,3,6-tetrahydro-pyridin-4-yl)benzoyl)-4,5,6,7-tetrahydropyrazolo[1,5-a]pyrazin-2-yl)methyl)piperi-din-4-yl)-3-fluorophenyl)-amino)piperidine-2,6-dione] the figure was 119 nM; with `Cc1cc(C(=O)N2CCC(CN3CCN(c4ccc(NC5CCC(=O)NC5=O)cc4F)CC3)CC2)cc(F)c1C1=CCN([C@@H](C)c2cc3c(-n4cc(F)c5c(c4=O)CCN5)ccnc3n2C)CC1` (stereo partly drawn) [Example 2g31, 3-((3-fluoro-4-(4-((1-(3-fluoro-4-(1-((S)-1-(4-(7-fluoro-4-oxo-1,2,3,4-tetra-hydro-5H-pyrrolo[3,2-c]pyridin-5-yl)-1-methyl-1H-pyrrolo[2,3-b]pyridin-2-yl)-ethyl)-1,2,3,6-tetrahydro-pyridin-4-yl)-5-methylbenzo-yl)-piperidin-4-yl)methyl)-piperazin-1-yl)phenyl)-amino)piperidine-2,6-dione], 268 nM. For the molecule `CNc1cc(=O)n(-c2ccnc3c2cc(CN2CC=C(c4c(F)cc(C(=O)N5CCC(CN6CCN(c7ccc(N[C@H]8CCC(=O)NC8=O)cc7F)CC6)CC5)cc4F)CC2)n3C)cc1F` (single isomer, unassigned) [Example 2g66], the EC50 in assay [1] is 173 nM. On the same count and under the same terms, with `C[C@@H](c1cc2c(-n3cc(F)c4c(c3=O)CCN4)ccnc2n1C)N1CC=C(c2c(F)cc(C(=O)N3CCn4nc(CN5CCC(c6ccc(NC7CCC(=O)NC7=O)cc6F)CC5)cc4C3)cc2F)CC1` (stereo partly drawn) [Example 2g3, 3-((4-(1-((5-(3,5-difluoro-4-(1-((S)-1-(4-(7-fluoro-4-oxo-1,2,3,4-tetrahydro-5H-pyrrolo [3,2-c]pyridin-5-yl)-1-methyl-1H-pyrrolo[2,3-b]pyridin-2-yl)ethyl)-1,2,3,6-tetrahydro-pyridin-4-yl)benzoyl)-4,5,6,7-tetrahydropyrazolo[1,5-a]pyrazin-2-yl)methyl)piperi-din-4-yl)-3-fluorophenyl)-amino)piperidine-2,6-dione] the figure was 8.8 nM.
